Data on 55 compounds can be found in ChEMBL document CHEMBL1201862, “PubChem BioAssay data set” (2004).

Structures are written as SMILES. Active and inactive are the calls of the source.

The nature of series [1]: Trypanosoma cruzi growth suppression in host cells – NIH3T3 host cells, beta-gal luminescence, confirmation (AID 2044).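 Note: intracellular parasites grown in NIH/3T3 mouse fibroblasts as host cells; luminescent beta-galactosidase reporter signal from transgenic T. cruzi replicating inside host cells; inhibitors lower the luminescence signal.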 The format is functional, cell-based.
A short description of series [2]: NIH3T3 cell viability loss – ATP luminescence, mouse fibroblasts, counter-screen, dose response (AID 2010).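 Note: cells exposed to compound for about 90 hours before reading.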 It counts as functional, cell-based. For orientation: Counterscreens check selectivity or assay interference.
The target in the next series is Cytochrome P450 2C9 (Homo sapiens, UniProt P11712).
Chain of Cytochrome P450 2C9 (P11712 whole entry): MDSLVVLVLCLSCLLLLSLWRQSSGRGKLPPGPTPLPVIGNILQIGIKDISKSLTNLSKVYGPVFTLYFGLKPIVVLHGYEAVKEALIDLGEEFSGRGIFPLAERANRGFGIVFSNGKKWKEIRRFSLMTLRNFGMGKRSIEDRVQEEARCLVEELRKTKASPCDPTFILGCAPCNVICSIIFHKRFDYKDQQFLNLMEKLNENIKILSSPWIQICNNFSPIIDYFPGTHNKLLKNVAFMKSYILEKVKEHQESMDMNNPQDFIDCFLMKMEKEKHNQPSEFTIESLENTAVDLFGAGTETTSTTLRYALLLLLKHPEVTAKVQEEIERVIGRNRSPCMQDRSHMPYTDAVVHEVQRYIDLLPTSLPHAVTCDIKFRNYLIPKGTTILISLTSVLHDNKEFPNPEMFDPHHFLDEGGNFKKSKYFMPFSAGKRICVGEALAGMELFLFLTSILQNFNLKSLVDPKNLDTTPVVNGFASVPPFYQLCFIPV
For the next series, the target named is Cytochrome P450 2D6 (Homo sapiens, UniProt P10635).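 Note: CYP2D6 member of a cytochrome P450 panel assay.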
Chain of Cytochrome P450 2D6 (P10635 whole entry): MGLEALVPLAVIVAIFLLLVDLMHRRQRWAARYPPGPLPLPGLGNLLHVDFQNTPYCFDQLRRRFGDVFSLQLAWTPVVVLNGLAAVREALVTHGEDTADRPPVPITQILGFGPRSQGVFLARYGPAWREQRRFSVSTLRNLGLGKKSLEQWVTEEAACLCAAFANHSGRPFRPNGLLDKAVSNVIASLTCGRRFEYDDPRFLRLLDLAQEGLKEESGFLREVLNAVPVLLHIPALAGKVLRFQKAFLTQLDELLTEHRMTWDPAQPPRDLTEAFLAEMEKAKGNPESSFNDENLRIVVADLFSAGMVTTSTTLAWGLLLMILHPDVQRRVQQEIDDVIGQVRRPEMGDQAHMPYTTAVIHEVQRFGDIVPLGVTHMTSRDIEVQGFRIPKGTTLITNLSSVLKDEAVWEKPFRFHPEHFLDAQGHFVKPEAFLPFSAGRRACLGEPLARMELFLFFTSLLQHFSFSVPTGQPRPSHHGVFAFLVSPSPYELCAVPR
Another series deals with Cytochrome P450 2C19 (Homo sapiens, UniProt P33261). Briefly: Cytochrome panel assay with activity outcomes. Panel member name: p450-cyp2c19 Compounds with AC50 equal or less than 10 uM are considered active. The format is functional.
Chain of Cytochrome P450 2C19 (P33261 whole entry): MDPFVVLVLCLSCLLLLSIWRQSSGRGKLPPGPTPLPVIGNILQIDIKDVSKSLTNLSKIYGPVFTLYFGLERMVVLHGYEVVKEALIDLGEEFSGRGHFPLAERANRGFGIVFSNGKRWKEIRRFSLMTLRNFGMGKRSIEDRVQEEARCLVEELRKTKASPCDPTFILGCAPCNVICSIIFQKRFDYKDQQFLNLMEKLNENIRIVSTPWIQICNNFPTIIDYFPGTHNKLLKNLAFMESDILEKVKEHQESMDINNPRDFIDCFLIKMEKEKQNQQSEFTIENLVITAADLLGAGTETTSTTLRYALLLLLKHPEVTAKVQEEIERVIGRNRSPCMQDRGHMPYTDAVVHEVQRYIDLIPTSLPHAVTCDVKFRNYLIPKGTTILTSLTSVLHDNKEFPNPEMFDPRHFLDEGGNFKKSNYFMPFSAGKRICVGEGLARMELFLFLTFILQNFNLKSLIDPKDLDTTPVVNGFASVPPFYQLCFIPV
A further series addresses Cytochrome P450 3A4 (Homo sapiens, UniProt P08684).
Another series addresses T1, Protein RecA (Mycobacterium tuberculosis, UniProt P9WHJ3).
T1 sequence (P9WHJ3 whole entry): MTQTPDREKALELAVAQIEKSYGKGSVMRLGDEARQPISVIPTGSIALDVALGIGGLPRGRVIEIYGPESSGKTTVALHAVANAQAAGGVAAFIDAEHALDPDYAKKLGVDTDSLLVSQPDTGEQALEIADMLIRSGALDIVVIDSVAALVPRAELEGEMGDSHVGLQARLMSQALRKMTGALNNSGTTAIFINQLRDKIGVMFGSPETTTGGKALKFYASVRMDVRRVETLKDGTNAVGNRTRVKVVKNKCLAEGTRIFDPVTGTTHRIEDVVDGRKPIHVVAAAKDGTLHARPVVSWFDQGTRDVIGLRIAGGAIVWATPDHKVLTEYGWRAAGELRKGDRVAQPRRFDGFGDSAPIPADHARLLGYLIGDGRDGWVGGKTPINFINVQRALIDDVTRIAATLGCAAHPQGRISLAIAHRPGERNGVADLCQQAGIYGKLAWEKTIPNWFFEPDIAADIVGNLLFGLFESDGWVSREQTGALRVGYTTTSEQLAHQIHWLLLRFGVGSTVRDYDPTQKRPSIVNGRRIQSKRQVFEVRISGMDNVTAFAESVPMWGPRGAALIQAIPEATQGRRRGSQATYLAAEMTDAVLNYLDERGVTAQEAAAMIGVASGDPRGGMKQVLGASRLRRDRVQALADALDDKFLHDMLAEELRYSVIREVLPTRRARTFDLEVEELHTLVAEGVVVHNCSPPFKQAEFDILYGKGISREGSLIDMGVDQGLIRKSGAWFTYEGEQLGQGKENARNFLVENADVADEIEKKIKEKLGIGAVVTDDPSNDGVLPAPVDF
Put plainly: Fluorescence Cell-Free Homogeneous Dose Retest to Identify Inhibitors of RecA-Intein Splicing Activity. [Related pubchem assays (depositor defined):AID2097, AID2223, AID489010, AID492950]. The format is functional.

Chain of Cytochrome P450 3A4 (P08684 whole entry): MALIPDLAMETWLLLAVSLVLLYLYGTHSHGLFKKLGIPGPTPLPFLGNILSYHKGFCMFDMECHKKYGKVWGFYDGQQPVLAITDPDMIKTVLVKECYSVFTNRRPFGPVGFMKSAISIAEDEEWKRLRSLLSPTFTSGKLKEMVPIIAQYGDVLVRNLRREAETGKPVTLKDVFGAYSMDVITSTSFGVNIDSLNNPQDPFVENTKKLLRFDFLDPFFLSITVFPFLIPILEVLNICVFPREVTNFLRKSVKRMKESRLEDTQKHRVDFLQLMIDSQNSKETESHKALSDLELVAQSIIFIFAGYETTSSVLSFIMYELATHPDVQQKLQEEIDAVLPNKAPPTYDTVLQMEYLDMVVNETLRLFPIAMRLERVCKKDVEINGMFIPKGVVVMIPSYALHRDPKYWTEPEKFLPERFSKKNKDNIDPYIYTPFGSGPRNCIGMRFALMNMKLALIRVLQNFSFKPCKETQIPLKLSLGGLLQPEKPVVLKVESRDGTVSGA

Take `CCCCCC(=O)Nc1cc(S(=O)(=O)N2CCOCC2)ccc1N1CCN(C)CC1`: the EC50 in series [1] is 0.813 µM (active); in series [2] it was > 60 µM (not active).

For the compound `CC#CCOC(=O)c1c(C)nc2sc3c(c2c1N)CC[C@@H](O)C3`, the values for the AC50 at Cytochrome P450 2C9 and at Cytochrome P450 2D6 were 15.8 µM (inconclusive) and 31.6 µM (inconclusive), respectively.

With `Cn1c(=O)cnc2cnc(Oc3ccccc3)nc21`, the AC50 on Cytochrome P450 2C19 (read-out: AC50) was 39.8 µM (inconclusive).

Regarding `COC(=O)[C@@]1(Cc2ccccc2)[C@H]2c3cc(C(=O)N(C)C)n(Cc4ccc(O)c(OC)c4)c3C[C@H]2CN1C(=O)c1ccccc1`, on Cytochrome P450 2D6, the AC50 was 31.6 µM (inconclusive).

Turning to `CCN1CCCC1CNC(=O)c1ccc(Sc2ccc(F)cc2)c([N+](=O)[O-])c1` (stereo unspecified), the EC50 in series [1] is 0.879 µM (active); in series [2], > 60 µM (inconclusive).

For `Nc1n[nH]c2ccccc12`, the AC50 at Cytochrome P450 3A4 is 3.98 µM (inconclusive).

As to `Cc1c(CCC(C)C)c(-n2ccnc2C)n2c(nc3ccccc32)c1C#N`, the AC50 at Cytochrome P450 2C9 is 3.98 µM (inconclusive); at Cytochrome P450 3A4 it was 14.1 µM (inconclusive).

On to `O=[N+]([O-])c1ccc(C2=Nn3c(nnc3-c3ccc(Cl)cc3)SC2)o1`, for which the AC50 is 7.94 µM (inconclusive) on Cytochrome P450 2C9 and 5.01 µM (inconclusive) on Cytochrome P450 2D6.

For `Cn1c(=O)c(-c2cccc(F)c2)nc2cncnc21`, the AC50 at Cytochrome P450 3A4 is 20 µM (inconclusive).

`Cc1ccccc1C(=O)N1CCc2ccccc2C1`: the AC50 on Cytochrome P450 2C9 was 5.62 µM (inconclusive); on Cytochrome P450 3A4 it was 6.31 µM (inconclusive).

As for `Cc1nc(C(=O)Nc2ccc(Cl)cc2)sc1C1(C)CC(c2cccc([N+](=O)[O-])c2)=NO1` (stereo unspecified), the figures for the EC50 in series [1] and in series [2] were 0.545 µM (active) and > 60 µM (not active), respectively.

In the case of `CSc1ccccc1NC(=O)c1cc(-c2cccnc2)nc2ccc(Br)cc12`, the EC50 in series [1] was 2 µM (active); in series [2], > 60 µM (not active).

Regarding `CN(C)c1ncnc2ccc(-c3ccccc3C#N)cc12`, the AC50 on Cytochrome P450 3A4 was 1.58 µM (inconclusive).

For `COc1ccc(-c2nc3cnc(N4CCN(C)CC4)nc3n(Cc3cccs3)c2=O)cc1`, on Cytochrome P450 2C19, the AC50 entry is reported as “inconclusive”.

In the case of `Cc1cc2c(cc1C)NC1=C(O)[C@@H](c3c[nH]c4ccc(COc5ccccc5)cc34)OC1=N2`, on Cytochrome P450 2C9, the AC50 was 7.94 µM (inconclusive).

For the compound `c1ccc(Nc2cccc(Nc3ccccc3)c2)cc1`, the EC50 in series [1] is 0.937 µM (active); in series [2], > 60 µM (not active).

`O=C1CCC[C@@H]2Cc3[nH]c4c(Cl)ccc(Cl)c4c3[C@@H]3CCN1[C@H]23`: the values for the EC50 in series [1] and in series [2] were 1.33 µM (active) and > 60 µM (not active), respectively.

For `CCCOc1ccc(C(=O)NC(=S)Nc2nc3ccc(C)cc3s2)cc1`, the AC50 at Cytochrome P450 2C19 (read-out: AC50) was 15.8 µM (inconclusive).

For the compound `O=C(CSc1nc2ccccc2c2ccccc12)c1ccccc1`, the results for the AC50 at Cytochrome P450 2C19 (read-out: AC50) and at Cytochrome P450 3A4 were 6.31 µM (inconclusive) and 3.98 µM (inconclusive), respectively.

As to `O=C(O)C(=O)Cc1ccc2c(c1)OCO2`, the AC50 entry at Cytochrome P450 2C19 is on record as “inconclusive”.

As to `CCCC/C=C/C(NC(=O)c1ccco1)c1ccccc1` (stereo unspecified), the AC50 at Cytochrome P450 2D6 is 39.8 µM (inconclusive).

On to `O=c1c2ccccc2c(-c2ccc(Br)cc2)nn1Cc1ccccc1`, for which the AC50 is 3.55 µM (inconclusive) at Cytochrome P450 2C9, 5.62 µM (inconclusive) at Cytochrome P450 2C19 (read-out: AC50) and 25.1 µM (inconclusive) on Cytochrome P450 3A4.

`Cc1nc(-c2cccnc2)sc1C(N)=O`: the AC50 was 5.01 µM (inconclusive) at Cytochrome P450 2C19 (read-out: AC50) and 28.2 µM (inconclusive) at Cytochrome P450 3A4.

Consider `COc1ccc(-c2cn3c([n+]2-c2ccccc2)SCC3)cc1`, for which the results for the EC50 in series [1] and in series [2] were 1.3 µM (active) and > 60 µM (not active), respectively.

With `C#CCCCO/N=C1/C[C@@H](O)[C@@H](O)[C@@H]2[C@@H]3C(=O)N(C[C@@H]4CCCO4)C(=O)[C@H]3CC[C@H]12`, on Cytochrome P450 3A4, the AC50 is 6.31 µM (inconclusive).

For the compound `N#Cc1ccc(CN2CCCC3(CCNCC3)C2)cc1`, at Cytochrome P450 2D6, the AC50 was 20 µM (inconclusive).

With `Clc1ccc(NC2=NCCCS2)cc1Cl`, the EC50 was 1.8 µM (active) in series [1] and > 60 µM (not active) in series [2].

As for `O=C1Nc2ccccc2C(O)(C(=O)NCc2ccc3c(c2)OCO3)N1c1ccc(Cl)c(Cl)c1` (stereo unspecified), at Cytochrome P450 2D6, the AC50 is 1.12 µM (inconclusive).

Regarding `O=C1C2CCC(C(O)C2)N1Cc1ccccc1` (stereo unspecified), at Cytochrome P450 3A4, the AC50 was 17.8 µM (inconclusive).

Turning to `N#C/C(=C(/O)CN1CCCCC1)c1nc(-c2ccc(Cl)cc2)cs1`, the AC50 on Cytochrome P450 2C19 (read-out: AC50) and on Cytochrome P450 3A4 was 10 µM (inconclusive) each time.

Take `CCN1CCN(C(c2ccccn2)c2c(NC(=O)c3ccccc3)sc(C)c2C)CC1` (stereo unspecified): at Cytochrome P450 2C19 (read-out: AC50), the AC50 is 17.8 µM (inconclusive).

As to `COc1ncc2nc(C)c(=O)n(-c3ccccc3)c2n1`, the AC50 on Cytochrome P450 2C19 (read-out: AC50) was 39.8 µM (inconclusive); at Cytochrome P450 3A4, 25.1 µM (inconclusive).

As for `CCCC1(C(=O)OC)C=C2C(=C(c3ccccc3)C(=O)C2C)CN1` (stereo unspecified), the half-maximal activity concentration (AC50) on Cytochrome P450 3A4 was 10 µM (inconclusive).

On to `CCc1cc2c(nc1CC)CCN(CC/C(C)=N/OCC[C@@H]1C=C[C@H](OC(C)=O)[C@H](COC(C)=O)O1)C2`, for which the AC50 at Cytochrome P450 3A4 is 3.16 µM (inconclusive).

On to `O=C(/C=C/c1cn(-c2ccccc2)nc1-c1cccc(Cl)c1)N1CCN(c2ccccn2)CC1`, for which the EC50 in series [1] was 1.72 µM (active); in series [2] it was > 60 µM (not active).

In the case of `O=C(N[C@@]1(C(=O)O)C[C@@H]1c1ccccc1)c1ccccc1`, the AC50 entry on Cytochrome P450 2C19 is “inconclusive”.

For `O=c1c(-c2ccc(Cl)cc2)nc2cnc(N3CCNCC3)nc2n1-c1ccccc1`, the AC50 at Cytochrome P450 2C9 was 15.8 µM (inconclusive); on Cytochrome P450 3A4, 12.6 µM (inconclusive).

With `COC(=O)c1scc(C)c1NC(=O)Cc1ccccc1`, the AC50 on Cytochrome P450 3A4 is 22.4 µM (inconclusive).

For `COCCn1c(=O)c(-c2ccccc2)nc2cnc(OC)nc21`, the AC50 at Cytochrome P450 2C9 was 20 µM (inconclusive); on Cytochrome P450 3A4, 25.1 µM (inconclusive).

Take `COc1ccc(N2CCN(C(CNC(=O)C(=O)NCCCn3ccnc3)c3cccnc3)CC2)cc1` (stereo unspecified): the results for the EC50 in series [1] and in series [2] were < 0.1 µM (active) and 10.4 µM (active), respectively.

As for `COCCn1c(=O)cnc2cnc(Oc3cccc(Cl)c3)nc21`, the AC50 at Cytochrome P450 3A4 was 31.6 µM (inconclusive).

For `CN1CCN(c2ccccc2NC(=O)c2ccc(-c3ccc(Br)cc3)o2)CC1`, the EC50 in series [1] is 2.18 µM (active); in series [2], 4.08 µM (active).

For the compound `Cc1nn(Cc2ccc(C(=O)Nc3ccc(C(=O)OC(C)C)cc3)o2)c(C)c1Cl`, the values for the EC50 in series [1] and in series [2] were 2.86 µM (active) and > 60 µM (not active), respectively.

As for `Cc1ccc(-n2c(C)cc(C(=S)N3CCOCC3)c2C)cc1C`, the values for the AC50 at Cytochrome P450 3A4 and on Cytochrome P450 2D6 were 31.6 µM (inconclusive) and 22.4 µM (inconclusive), respectively.

With `CC(C(=O)N1CCc2ccccc21)N1CCN(Cc2ccccc2)CC1` (stereo unspecified), the results for the EC50 in series [1] and in series [2] were 0.793 µM (active) and > 60 µM (not active), respectively.

As for `O=C(CCN1CCCCC1)N1CCc2c([nH]c3ccccc23)[C@H]1c1cccnc1`, the values for the AC50 entry on Cytochrome P450 2C19 and at Cytochrome P450 2D6 were “inconclusive” and 3.16 µM (inconclusive), respectively.

Regarding `COc1ccc(C(=O)c2ccc([N+](=O)[O-])cc2Cl)cc1`, the EC50 in series [1] is 2.15 µM (active); in series [2], > 30 µM (not active).

For the compound `C=CCSc1ncccc1C(=O)NCc1ccc(C)cc1`, the AC50 at Cytochrome P450 2C9 was 12.6 µM (inconclusive).

As for `N#Cc1c(Cl)cccc1-n1ccnc1`, the AC50 at Cytochrome P450 2C9 was 2.82 µM (inconclusive); on Cytochrome P450 2D6, 7.08 µM (inconclusive).

For `Cc1onc(-c2ccccc2Cl)c1C(=O)NCC(=O)O`, the AC50 at Cytochrome P450 2C19 (read-out: AC50) was 39.8 µM (inconclusive).

Consider `CCCc1n[nH]c2c1C(c1ccc(OCCN3CCOCC3)c(OCC)c1)C(C#N)=C(N)O2` (stereo unspecified), for which the EC50 at Protein RecA is 10 µM (active).

For `O=C(CN1CCCC1)N/N=C/c1ccc(-c2cccc(Cl)c2)o1`, the AC50 at Cytochrome P450 2C9 was 15.8 µM (inconclusive).

Consider `O=C(N/N=C/c1ccc(Cl)cc1Cl)c1cccc(F)c1`, for which the AC50 at Cytochrome P450 3A4 was 31.6 µM (inconclusive); at Cytochrome P450 2D6, 8.91 µM (inconclusive).

On to `Cc1cccc(NC(=O)Nc2ccncc2)c1`, for which the EC50 is 0.781 µM (active) in series [1] and > 60 µM (not active) in series [2].

Consider `O=C(O)/C=C\c1c[nH]cn1` [CIS-UROCANIC ACID], for which the AC50 at Cytochrome P450 3A4 is 0.251 µM (inconclusive).

By EC50 is commonly meant the concentration giving half of the maximal effect. A word on the AC50: it is the concentration giving half of the maximal activity seen.
